Reference: patent US7416741B2, “Copper lowering treatment of inflammatory and fibrotic diseases” (The Regents of the University of Michigan, priority 2002, dated 2008)

Tests used:
cancer patients = conditions: clinical phase ½ study of metastatic and advanced cancers; cited from earlier work
[1] = system: Wilson's disease patients; assay: Open label study of TM for initial treatment of neurologically presenting Wilson's disease patients; type: in vivo, human
From the text: The results in the first patient studied can be used to illustrate several points. For the first seven days, the patient received TM only with meals (tid with meals). This produced the immediate negative copper balance one would expect from the first mechanism of action (blockade of copper absorption when given with meals). After the first seven days, TM was given between meals as well (tid with meals, and tid between meals). This led to the immediate rise in plasma copper expected from absorption of TM into the blood, and formation of a complex of copper, TM, and albumin. The copper complexed with TM and albumin is unavailable for cellular uptake, and this copper is therefore non-toxic. There is a 1:1 stochiometric relationship between molybdenum and copper in this complex. Knowing the molybdenum level in the blood, and the ceruloplasmin level (ceruloplasmin also contains copper that is non-toxic), one can calculate how much of the plasma copper is not bound to one or the other. This so-called “free copper” (non-ceruloplasmin plasma copper) is the potentially toxic copper. When reduced to zero, the plasma copper-molybdenum “gap” is closed. This took 16 days in the first patient (9 days after adding the between meal doses). Since in the brain (and in other organs), free copper is in equilibrium with the blood, decreasing the blood free copper to a low level begins the process of lowering the brain level of free (toxic) copper.
The inventors have treated initially 56 Wilson's disease patients with TM, all of whom presented with neurological or psychiatric disease, in an open label study. These patients were all diagnosed by standard criteria. […] Some of them were treated briefly with other agents prior to this trial. Two patients had psychiatric but not neurological symptoms.
With three exceptions in the earliest part of the study, all patients received a dose of 20 mg tid with meals, or qid with three meals and a snack. Thus, the only difference between a patient receiving 120 mg and 140 mg total dose is that the former was receiving 20 mg tid, or 60 mg, with meals, and the latter was receiving 20 mg qid, or 80 mg with meals plus a snack. The rest of the total daily dose was divided up into three equal doses and given between meals.
Measuring trichloracetic acid (TCA) soluble copper of the plasma is somewhat useful in assessing the impact of TM therapy on copper metabolism in Wilson's disease. Generally, a high proportion of plasma copper in these patients is TCA soluble (it averaged 56% in patients which is 27 p.g/dl). All of the non-ceruloplasmin plasma copper is TCA soluble, and a somewhat variable portion of the ceruloplasmin copper is also TCA soluble. Because the ceruloplasmin levels are usually rather low in Wilson's disease, most of the plasma copper is TCA soluble. The copper in the TM/albumin/copper complex in the blood is TCA insoluble. Thus, as therapy proceeds, the fraction of the plasma copper that is TCA soluble becomes smaller. […] The TCA soluble fraction cannot be used as an absolute endpoint, for example attempting to reduce it to zero, because a small and somewhat variable soluble fraction is usually present due to plasma ceruloplasmin. However, the significant mean reduction from 27 to 15 p.g/dl illustrates the beneficial effect that TM therapy has on the status of the potentially toxic plasma copper in these patients. Further evidence of the desirable impact of TM therapy on copper metabolism is shown by reduction of mean urine copper values during the latter part of TM therapy, compared to baseline values.
TM has a quick and favorable impact on copper metabolism, reducing the levels of potentially toxic copper of the blood and as contemplated the rest of the body as well. The primary clinical objective in treatment of Wilson's disease is to gain control over copper toxicity while not allowing worsening of the disease or symptoms. […]

Cp = assay: Serum Cp in the Con A mouse model; type: in vivo; conditions: Ex 5 Exp 1; after fourth Con A injection
From the text: Twenty-four hours after each of the first three injections, one mouse from each group was bled, and serum ALT measured. In this experiment, TM was started in the TM treated mice before the first Con A injection. After the fourth injection of Con A, all the mice were bled for ALT and Cp measurements and the experiment terminated. The Cp levels in TM treated mice were 25-50% of non-TM treated animals.

[2] = system: bleomycin mouse model of pulmonary fibrosis; assay: Lung hydroxyproline assay in the bleomycin mouse model of pulmonary fibrosis; type: in vivo; conditions: for Hydroxyproline: sacrifice day 21
From the text: In the bleomycin mouse model, which is known to be dependent upon the TGFβ pathway, the intratracheal administration of bleomycin leads to the development of severe lung inflammation followed by fibrosis in 2-3 weeks, at which time the mice are sacrificed. Fibrosis is quantified in lung tissue by measuring hydroxyproline, a key component of the collagen that is deposited in fibrotic lung.
Mice. Female CBA/J mice at 8-10 weeks of age were from the Jackson Laboratories (Bar Harbor, Me.). These mice weighed an average of 21.4 g at the start of experiments, with a standard deviation of 1.7 g.
Bleomycin treatment. This was undertaken on day 0 by endotracheal instillation through the oral cavity after exposure of the airway by pulling the tongue. Each mouse received 0.001 units of bleomycin (Bristol-Myers, Evansville, Ind.)/gm body weight in 30 μl of sterile saline, while control mice received an equal volume of sterile saline only.
TM treatment experiments. TM was given in 0.25 ml of water by intragastric gavage once daily, in the doses and times indicated in the various studies as described below.
Hydroxyproline assay. The extent of fibrosis was assessed by assaying hydroxyproline content of whole lung homogenates at the time of sacrifice as previously described (M Gharaee-Kermani et al., J. Leukoc. Biol., 64:657-666 [1998]). Results are expressed as μg hydroxyproline/lung (the lung tissue included both lungs).
Hydroxyproline assay. The extent of fibrosis was assessed by assaying hydroxyproline content of whole-lung homogenates at the time of sacrifice as described in Gharaee-Kermani, et al., J. Leukoc. Biol., 64:657-666 (1998). Hydroxyproline was expressed as micrograms of hydroxyproline per mouse lung (the lung tissue included both lungs).

[3] = among the seven anemia patients

## [SH-].[SH-].[S]=[Mo]=[S] [TM, tetrathiomolybdate]
Cancer patients
  average freedom from progression in evaluable patients: 11 months
[1]; 56 patients
  patients with reversible anemia/bone marrow depression: seven
[1]; all treated with 150 mg TM/day or higher
  patients with elevation of transaminase values (serum AST and ALT): four of the patients
[1]; [3]
  patients with reduction in platelet count: Three of the patients
  patients with reduction in white blood cell count: four of the patients
[1]; average in the seven anemia patients
  fall in hemoglobin: 3.4%
[1]; dose of 180 mg/day or over
  overtreatment incidence: 6 of 37
[1]; dose of 150 or lower
  overtreatment incidence: 1 of 13
[1]; during weeks of TM administration, two patients
  patients with change of more than 5 units in quantitative neurological exam (significant worsening): 4%
[1]; first patient, TM tid with meals, from day 7 also tid between meals
  time to close the plasma copper-molybdenum gap (free copper reduced to zero): 16 days
[1]; initial 8 weeks of TM therapy
  quantitative speech exam scores: No patient shows significant (more than 2.0 units) reduction in scores
Cp
  Cp levels in TM treated mice relative to non-TM treated animals: 25-50%
[2]; Ex 1 Exp 1, Bleomycin/TM group
  Hydroxyproline: 162 ± 12 μg/lung
[2]; Ex 1 Exp 1, TM before bleomycin
  fibrosis as measured by hydroxyproline assay: almost completely abrogated fibrosis
[2]; Ex 1 Exp 1, TM only group
  Hydroxyproline: 193 ± 5 μg/lung
[2]; Ex 1 Exp 2, Bleomycin Group, 0.3 mg TM/mouse/day, day 21
  Hydroxyproline (Mean ± SE): 232 ± 4 μg hydroxyproline/lung
[2]; Ex 1 Exp 2, Bleomycin Group, 0.5 mg TM/mouse/day, day 21
  Hydroxyproline (Mean ± SE): 197 ± 15 μg hydroxyproline/lung
[2]; Ex 1 Exp 2, Bleomycin Group, 0.7 mg TM/mouse/day, day 21
  Hydroxyproline (Mean ± SE): 172 ± 22 μg hydroxyproline/lung
[2]; Ex 1 Exp 2, Bleomycin Group, 0.9 mg TM/mouse/day, day 21
  Hydroxyproline (Mean ± SE): 157 ± 14 μg hydroxyproline/lung
[2]; Ex 1 Exp 2, Control Group (Saline only), 0.3 mg TM/mouse/day
  Hydroxyproline (Mean ± SE): 132 ± 3 μg hydroxyproline/lung
[2]; Ex 1 Exp 2, Control Group (Saline only), 0.5 mg TM/mouse/day
  Hydroxyproline (Mean ± SE): 130 ± 5 μg hydroxyproline/lung
[2]; Ex 1 Exp 2, Control Group (Saline only), 0.7 mg TM/mouse/day
  Hydroxyproline (Mean ± SE): 152 ± 10 μg hydroxyproline/lung
[2]; Ex 1 Exp 2, Control Group (Saline only), 0.9 mg TM/mouse/day
  Hydroxyproline (Mean ± SE): 130 ± 8 μg hydroxyproline/lung
[2]; Ex 1 Exp 2, TM 0.3 to 0.9 mg
  protection against bleomycin-induced fibrosis as measured by hydroxyproline accumulation: dose dependent
[2]; Ex 1 Exp 2, no bleomycin
  effect of TM treatment alone on hydroxyproline levels: no effect of TM treatment alone on hydroxyproline levels
[2]; Ex 1 Exp 3, TM given before bleomycin or started at day 4 or 7 after, 1.2 then 0.9 mg/mouse/day
  hydroxyproline production: significant suppression of hydroxyproline production
[2]; Ex 1 Exp 3, no bleomycin
  effect of TM alone on hydroxyproline levels: no effect of TM alone on hydroxyproline levels
[2]; Ex 2 Exp 2, TM from day 5, day 21
  lung hydroxyproline levels, bleomycin-induced increase: completely and significantly inhibited the increase
